Results: ChEMBL document CHEMBL4842353, “Structure-activity relationship investigation for imidazopyrazole-3-carboxamide derivatives as novel selective inhibitors of Bruton's tyrosine kinase” (Eur J Med Chem, 2021)

Columns and labels:
in vivo [1] = conditions: Sprague-Dawley, rat, iv, 1 mg/kg
in vivo [2] = conditions: Sprague-Dawley, rat, iv, 1 mg/kg; remark: listed apart in the source
in vivo [3] = conditions: Sprague-Dawley, rat, po, 10 mg/kg
in vivo [4] = conditions: Sprague-Dawley, rat, po, 10 mg/kg; remark: listed apart in the source
in vivo [5] = conditions: Sprague-Dawley, rat, iv, 1 mg/kg; remark: listed apart in the source
in vivo [6] = conditions: Sprague-Dawley, rat, po, 10 mg/kg; remark: listed apart in the source
in vivo [7] = conditions: Sprague-Dawley, rat, iv, 1 mg/kg; remark: listed apart in the source
in vivo [8] = conditions: Sprague-Dawley, rat, po, 10 mg/kg; remark: listed apart in the source
in vivo [9] = conditions: Sprague-Dawley, rat, iv, 1 mg/kg; remark: listed apart in the source
in vivo [10] = conditions: Sprague-Dawley, rat, po, 10 mg/kg; remark: listed apart in the source
in vivo [11] = conditions: Sprague-Dawley, rat, iv, 1 mg/kg; remark: listed apart in the source
in vivo [12] = conditions: Sprague-Dawley, rat, po, 10 mg/kg; remark: listed apart in the source
in vivo [13] = conditions: Sprague-Dawley, rat, iv, 1 mg/kg; remark: listed apart in the source
in vivo [14] = conditions: Sprague-Dawley, rat, po, 10 mg/kg; remark: listed apart in the source
in vivo [15] = conditions: Sprague-Dawley, rat, po, 10 mg/kg; remark: listed apart in the source

Question: With `CC#CC(=O)N1CCC(c2cnn3c(C(N)=O)c(-c4ccc(Oc5ccccc5)cc4)[nH]c23)CC1` as the compound, how does the half-life at 12 h (in vivo [1]) read?
Answer: 2.35 h

Question: What about the MRT last at 12 h (in vivo [2]) of the same compound?
Answer: 2.19 h

Question: What about the Tmax at 24 h (in vivo [3]) of the same compound?
Answer: 0.83 h

Question: What about the bioavailability at 24 h (in vivo [4]) of the same compound?
Answer: 10.8%

Question: What about the Tmax at 12 h (in vivo [5]) of the same compound?
Answer: 1.98 min

Question: And the half-life at 24 h (in vivo [6])?
Answer: 5.98 h

Question: And the Cmax at 12 h (in vivo [7])?
Answer: 0.537 µg/mL

Question: And the MRT last at 24 h (in vivo [8])?
Answer: 10.2 h

Question: And the clearance at 12 h (in vivo [9])?
Answer: 5.1 L/h/kg

Question: And the AUC(0-inf) at 24 h (in vivo [10])?
Answer: 0.213 µg·h/mL

Question: And the AUC(0-t) at 12 h (in vivo [11])?
Answer: 0.18 µg·h/mL

Question: And the Cmax at 24 h (in vivo [12])?
Answer: 0.016 µg/mL

Question: What about the AUC(0-inf) at 12 h (in vivo [13]) of the same compound?
Answer: 0.198 µg·h/mL

Question: What about the AUC(0-t) at 24 h (in vivo [14]) of the same compound?
Answer: 0.167 µg·h/mL

Question: What about the CL/F at 24 h (in vivo [15]) of the same compound?
Answer: 47.1 L/h/kg
